Data as given in patent US20090263429A1, “Method of Preparing a Hydrogel” (The University of Manchester, priority 2005, published 2009).

Assay: 96 well screen of Fmoc/Cbz-amino acid and dipeptide with thermolysin (gelation)
Assay type: physicochemical
Details: Fmoc-G and GG with thermolysin, 20 mM Fmoc-aa, 48 hours at room temperature
Method: Fmoc-amino acids or Cbz-amino acids with dipeptides were weighed in to a clean universal to the different concentrations and the various ratios required. They were then suspended in deionised water, and solubilized by the addition of 0.5M NaOH to adjust the pH to 13. The particle size was reduced through the reduction of larger clumps by gentle manipulation with a spatula, and the subsequent immersion in a sonication bath. […] The pH was reduced by the addition dropwise from a 200 μl pipette of 0.1 M HCl with gentle vortexing until the value reached 7. […] Upon acquisition of a neutral pH, de-ionised water was added up to the required volume.
The enzyme, thermolysin, was provided in the form of a lyphophilized powder. This was weighed to a sterile universal, and then reconstituted in distilled water to a concentration of 1 mg/ml. In order to ensure the enzyme was fully solubilised, the solution was vortexed for thirty seconds, and stored at room temperature within a sealed container and used within thirty minutes. […]
A 96 well format was developed to screen large numbers of combinations of reactant ratios and concentrations. […] Relative quantities of these were added. […] Sufficient quantities of distilled water were added to make up to a final volume of […]. […] Results of the reactions were measured by HPLC, and the degree of conversion of Fmoc/Cbz-amino acid to Fmoc/Cbz-tripeptide was calculated.

- gel formation: doesn't form a gel
Substance: Fmoc-triGlycine [Fmoc-GGG]
